Source: US12084436B2, “Heterocyclic compound” (Takeda Pharmaceutical Company Limited, priority 2019, dated 2024)

These molecules were tested against T1, HDAC6 enzyme (Homo sapiens, UniProt Q9UBN7) (assay: HDAC6 enzyme inhibitory assay (HDAC-Glo I/II Assay kit, luminescence)). Settings: 10 μM test compound; wells without enzyme = 100% inhibition; read-out: HDAC6 inhibitory rate (%) (10 μM).
T1 construct: prepared by transducing full length HDAC6 gene into Sf-9 insect cells; GST; purchased SignalChem; host or cells: Sf-9 insect cells
T1 sequence (Q9UBN7 1-1215): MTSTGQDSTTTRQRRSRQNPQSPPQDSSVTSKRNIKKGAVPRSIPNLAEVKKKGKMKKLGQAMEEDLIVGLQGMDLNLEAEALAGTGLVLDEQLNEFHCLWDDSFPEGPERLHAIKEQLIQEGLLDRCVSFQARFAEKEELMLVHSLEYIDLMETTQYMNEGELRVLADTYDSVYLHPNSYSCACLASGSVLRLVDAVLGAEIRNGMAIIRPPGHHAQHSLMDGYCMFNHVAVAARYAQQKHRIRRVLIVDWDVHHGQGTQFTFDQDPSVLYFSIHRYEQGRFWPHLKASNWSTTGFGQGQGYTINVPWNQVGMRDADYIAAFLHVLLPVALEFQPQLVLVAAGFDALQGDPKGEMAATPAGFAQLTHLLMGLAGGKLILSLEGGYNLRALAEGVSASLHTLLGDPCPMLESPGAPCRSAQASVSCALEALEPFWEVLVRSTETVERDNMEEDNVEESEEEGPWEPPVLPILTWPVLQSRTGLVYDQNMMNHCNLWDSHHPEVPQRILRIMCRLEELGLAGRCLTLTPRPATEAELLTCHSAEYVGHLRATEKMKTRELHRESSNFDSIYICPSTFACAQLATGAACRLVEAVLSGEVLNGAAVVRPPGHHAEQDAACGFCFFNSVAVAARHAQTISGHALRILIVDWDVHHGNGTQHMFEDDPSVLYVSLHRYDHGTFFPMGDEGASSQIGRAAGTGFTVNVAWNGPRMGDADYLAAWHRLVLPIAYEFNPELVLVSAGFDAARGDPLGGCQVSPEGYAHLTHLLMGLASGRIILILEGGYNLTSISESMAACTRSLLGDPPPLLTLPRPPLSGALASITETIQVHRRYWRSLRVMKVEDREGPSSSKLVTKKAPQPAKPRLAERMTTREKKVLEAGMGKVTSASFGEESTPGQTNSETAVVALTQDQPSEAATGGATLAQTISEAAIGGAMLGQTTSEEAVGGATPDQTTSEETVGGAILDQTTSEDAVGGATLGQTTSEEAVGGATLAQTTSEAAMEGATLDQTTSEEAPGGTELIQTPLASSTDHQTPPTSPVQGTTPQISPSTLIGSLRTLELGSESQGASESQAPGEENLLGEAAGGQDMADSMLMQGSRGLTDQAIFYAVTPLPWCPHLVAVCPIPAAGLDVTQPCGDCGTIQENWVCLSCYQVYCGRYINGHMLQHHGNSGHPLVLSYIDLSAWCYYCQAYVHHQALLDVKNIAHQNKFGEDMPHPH
Type: biochemical
In short: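 Full-length human HDAC6, GST-purified from Sf-9 cells, was preincubated with compound for 60 min at room temperature in Tris-HCl pH 7.5 buffer with glutathione and Tween-20. Substrate-developer was then added, and luminescence was read after 20 min at room temperature. Inhibition was expressed relative to no-enzyme wells, taken as 100% inhibition.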

Point of comparison: `N#Cc1cccc(Cn2ccnc2-c2cc(-c3nnc(C(F)F)o3)ccn2)c1` [Example 72a, 3-[(2-{4-[5-(difluoromethyl)-1,3,4-oxadiazol-2-yl]pyridin-2-yl}-1H-imidazol-1-yl)methyl]benzonitrile], inhibition at 10 µM 100%. Against it:
- CCNC(=O)Cn1ccnc1-c1cc(F)cc(-c2nnc(C(F)F)o2)c1 [Example 32a, 2-(2-{3-[5-(difluoromethyl)-1,3,4-oxadiazol-2-yl]-5-fluorophenyl]-1H-imidazol-1-yl)-N-ethylacetamide] — lower, 91%
- CC(c1cccc(F)c1)n1ccnc1-c1cc(-c2nnc(C(F)F)o2)ccn1 (centres unmarked) [Example 92a, 4-[5-(difluoromethyl)-1,3,4-oxadiazol-2-yl]-2-{1-[1-(3-fluorophenyl)ethyl]-1H-imidazol-2-yl}pyridine] — the same, 100%
- O=C1c2cc(-c3nnc(C(F)F)o3)ccc2CN1N(Cc1ccc(F)cc1)CC1CCOCC1 [Example 2c, 6-[5-(difluoromethyl)-1,3,4-oxadiazol-2-yl]-2-{[(4-fluorophenyl)methyl][(oxan-4-yl)methyl]amino}-2,3-dihydro-1H-isoindol-1-one] — lower, 99%
- O=C1c2cc(-c3nnc(C(F)F)o3)ccc2CN1NC1CCOCC1 [Example 34c, 6-[5-(difluoromethyl)-1,3,4-oxadiazol-2-yl]-2-[(oxan-4-yl)amino]-2,3-dihydro-1H-isoindol-1-one] — lower, 92%
- O=C1c2cc(-c3nnc(C(F)F)o3)ccc2CN1NC1CCCCC1 [Example 29c, 2-(cyclohexylamino)-6-[5-(difluoromethyl)-1,3,4-oxadiazol-2-yl]-2,3-dihydro-1H-isoindol-1-one] — lower, 95%
- Fc1cc(-c2nnc(C(F)F)o2)cc(-c2nccn2Cc2cccc(Cl)c2)c1 [Example 21a, 2-(3-[1-[(3-chlorophenyl)methyl]-1H-imidazol-2-yl}-5-fluorophenyl)-5-(difluoromethyl)-1,3,4-oxadiazole] — lower, 93%
- CN(CC1CCOCC1)N1Cc2ccc(-c3nnc(C(F)F)o3)cc2C1=O [Example 41c, 6-[5-(difluoromethyl)-1,3,4-oxadiazol-2-yl]-2-{methyl[(oxan-4-yl)methyl]amino}-2,3-dihydro-1H-isoindol-1-one] — lower, 99%
- CN1C(=O)c2cc(-c3nnc(C(F)F)o3)ccc2C[C@]1(C)c1ccc(F)c(F)c1 [Example 50b, (3R)-7-[5-(difluoromethyl)-1,3,4-oxadiazol-2-yl]-3-(3,4-difluorophenyl)-2,3-dimethyl-3,4-dihydroisoquinolin-1(2H)-one] — higher, 101%
- Cc1nc(Cn2ccnc2-c2cc(F)cc(-c3nnc(C(F)F)o3)c2)no1 [Example 55a, 3-[(2-{3-[5-(difluoromethyl)-1,3,4-oxadiazol-2-yl]-5-fluorophenyl}-1H-imidazol-1-yl)methyl]-5-methyl-1,2,4-oxadiazole] — lower, 97%
- O=C1c2cc(-c3nnc(C(F)F)o3)cnc2CN1N(Cc1ccc(F)cc1)CC1CCOCC1 [Example 71c, 3-[5-(difluoromethyl)-1,3,4-oxadiazol-2-yl]-6-{[(4-fluorophenyl)methyl][(oxan-4-yl)methyl]amino}-6,7-dihydro-5H-pyrrolo[3,4-b]pyridin-5-one] — the same, 100%
- Fc1cc(-c2nnc(C(F)F)o2)cc(-c2nccn2Cc2ccc(Cl)cc2)c1 [Example 22a, 2-(3-{1-[(4-chlorophenyl)methyl]-1H-imidazol-2-yl}-5-fluorophenyl)-5-(difluoromethyl)-1,3,4-oxadiazole] — lower, 99%
- Fc1cc(-c2nnc(C(F)F)o2)cc(-c2nccn2Cc2ccccc2Cl)c1 [Example 20a, 2-(3-{1-[(2-chlorophenyl)methyl]-1H-imidazol-2-yl]-5-fluorophenyl)-5-(difluoromethyl)-1,3,4-oxadiazole] — lower, 97%
- O=C1NN(C2CCOCC2)Cc2ccc(-c3nnc(C(F)F)o3)cc21 [Example 28b, 7-[5-(difluoromethyl)-1,3,4-oxadiazol-2-yl]-3-(oxan-4-yl)-3,4-dihydrophthalazin-1(2H)-one] — lower, 97%
